In brackets after ≈: the same amount, converted by molar mass.
Biological target: KRAS (G12D)::SOS1 protein-protein interaction (Homo sapiens (Human), UniProt P01116, G12D)
Sequence (P01116 other isoform, or with tags, fused parts or gaps G12D): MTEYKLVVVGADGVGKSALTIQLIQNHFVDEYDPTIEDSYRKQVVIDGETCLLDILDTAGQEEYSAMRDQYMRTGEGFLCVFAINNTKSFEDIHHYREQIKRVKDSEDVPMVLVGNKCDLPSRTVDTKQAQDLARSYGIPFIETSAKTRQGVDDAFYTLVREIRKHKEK
Test: KRAS::SOS1 AlphaScreen binding assay (KRAS G12D)
Conditions: GDP
From the text: (§1) This assay can be used to examine the potency with which compounds according to the invention binding to (mutated) KRAS inhibit the protein-protein interaction between SOS1 and (mutated) KRAS e.g. KRAS G12C, KRAS G12D. […] Low IC50 values in this assay setting are indicative of strong inhibition of protein-protein interaction between SOS1 and KRAS:
(§2) These assays measure the inhibitory effect of compounds on KRAS mutant protein-protein interactions using the Alpha Screen technology by Perkin Elmer.
(§3) The following (mutant) enzyme forms of KRAS and interacting proteins are used in these assays at the given concentrations:
KRAS (G12D) 1-169, N-terminal 6His-tag, C-terminal avi-tag (Xtal BioStructures, Inc.); final assay concentration 10 nM and SOS1 564-1049, N-terminal 229 GST-tag, TEV cleavage site (Viva Biotech Ltd); final assay concentration 5 nM;
(§4) Test compounds dissolved in DMSO are dispensed onto assay plates (Proxiplate 384 PLUS, white, PerkinElmer; 6008289) using an Access Labcyte Workstation with the Labcyte Echo 55x. For the chosen highest assay concentration of 100 μM, 150 nL of compound solution are transferred from a 10 mM DMSO compound stock solution. A series of eleven fivefold dilutions per compound are transferred to the assay plate, compound dilutions are tested in duplicates. DMSO are added as backfill to a total volume of 150 nL.
(§5) The assays run on a fully automated robotic system in a darkened room below 100 Lux. To 150 nl of compound dilution 10 μl of a mix including KRAS mutant protein, SOS1 (final assay concentrations see above) and GDP nucleotide (Sigma G7127; final assay concentration 10 μM) in assay buffer (1×PBS, 0.1% BSA, 0.05% Tween 20) are added into columns 1-24.
(§6) After 30 minutes incubation time 5 μl of Alpha Screen bead mix in assay buffer are added into columns 1-23. Bead mix consists of AlphaLISA Glutathione Acceptor Beads (PerkinElmer, Cat No AL109) and AlphaScreen Streptavidin Donor Beads (PerkinElmer Cat No 6760002) in assay buffer at a final assay concentration of 10 μg/mL each.
(§7) Plates are kept at room temperature in a darkened incubator. After an additional 60 minutes incubation time the signal is measured in a PerkinElmer Envision HTS Multilabel Reader using the AlphaScreen specs from PerkinElmer.
(§8) Each plate contains up to 16 wells of a negative control depending on the dilution procedure (platewise or serial) (DMSO instead of test compound; with KRAS mutant::SOS1 GOP mix and bead mix; column 23) and 16 wells of a positive control (DMSO instead of test compound; with KRAS mutant::SOS1 GOP mix w/o bead mix; column 24).
(§9) As internal control known inhibitors of KRAS mutant::SOS1 interaction can be measured on each compound plate.
(§10) IC50 values are calculated and analyzed with Boehringer Ingelheim's MEGALAB C50 application using a 4 parametric logistic model.
(§11) Tables of example compounds disclosed herein contain IC50 values determined using the above assays (see Table 43).
In the case of `CO[C@H]1CCN(C)[C@@H]1[C@H](C)Oc1nc(-c2noc3c2CCC[C@@]32CCCc3sc(N)c(C#N)c32)nc2c1CN(C1COC1)C[C@]21CCOC1` [II-13], the IC50 is reported as 1 nM.
Work on `C[C@H](Oc1nc(-c2noc3c2CCC[C@@]32SCCc3sc(N)c(C#N)c32)nc2c1COC[C@]21CCOC1)[C@@H]1CCCN1C` [II-16] yielded an IC50 of 1 nM.
For `C[C@H](Oc1nc(-c2noc3c2CCC[C@@]32CCCc3sc(N)c(C#N)c32)nc2c1CN(C1COC1)C[C@]21CCOC1)[C@@H]1CCCN1C` [II-12], the IC50 was 1 nM.
In the case of `C[C@H](Oc1nc(-c2onc3c2CCC[C@@]32CCCc3sc(N)c(C#N)c32)nc2c1CN(C1COC1)C[C@]21CCOC1)[C@@H]1CCCN1C` [I-56], the IC50 is reported as 1 nM.
`CO[C@H]1CCN(C)[C@@H]1[C@H](C)Oc1nc(-c2onc3c2CCC[C@@]32CCCc3sc(N)c(C#N)c32)nc2c1n(C)c(=O)n2[C@H]1COC[C@@H](C)C1` [I-51] gave an IC50 of 2 nM.
For `CCn1c(=O)n([C@@H]2CCCOC2)c2nc(-c3onc4c3CCC[C@@]43CCCc4sc(N)c(C#N)c43)nc(OCC3(CN4CCCC4)CC3)c21` [I-35], the IC50 was 7 nM.

System: not listed separately
Test: Solubility measurement (DMSO solution precipitation method)
Type: physicochemical
Conditions: aqueous buffer, kinetic from dmso stock, McIlvaine buffer pH 4.5, 24 h, read-out: solubility pH 4.5
Description: A 10 mM DMSO stock solution of a test compound is used to determine its aq. solubility. The DMSO solution is diluted with an aq. medium (McIlvaine buffer with pH=4.5 or 6.8) to a final concentration of 250 μM. After 24 h of shaking at ambient temperature a potentially formed precipitate is removed by filtration. The concentration of the test compound in the filtrate is determined by LC-UV methods by calibrating the signal to the signal of a reference solution with complete dissolution of the test compound in acetonitrile/water (1:1) with known concentration.
In the case of `CO[C@H]1CCN(C)[C@@H]1[C@H](C)Oc1nc(-c2noc3c2CCC[C@@]32CCCc3sc(N)c(C#N)c32)nc2c1CN(C1COC1)C[C@]21CCOC1` [II-13], the solubility at 24 h is reported as over 151 µg/mL.
With `C[C@H](Oc1nc(-c2noc3c2CCC[C@@]32CCCc3sc(N)c(C#N)c32)nc2c1CN(C1COC1)C[C@]21CCOC1)[C@@H]1CCCN1C` [II-12] the solubility at 24 h was over 152 µg/mL.
With `C[C@H](Oc1nc(-c2onc3c2CCC[C@@]32CCCc3sc(N)c(C#N)c32)nc2c1CN(C1COC1)C[C@]21CCOC1)[C@@H]1CCCN1C` [I-56] the solubility at 24 h was over 157 µg/mL.
`CO[C@H]1CCN(C)[C@@H]1[C@H](C)Oc1nc(-c2onc3c2CCC[C@@]32CCCc3sc(N)c(C#N)c32)nc2c1n(C)c(=O)n2[C@H]1COC[C@@H](C)C1` [I-51] gave a solubility at 24 h of over 153 µg/mL.

Same assay, conditions: aqueous buffer, kinetic from dmso stock, McIlvaine buffer pH 6.8, 24 h, read-out: solubility pH 6.8
`CO[C@H]1CCN(C)[C@@H]1[C@H](C)Oc1nc(-c2noc3c2CCC[C@@]32CCCc3sc(N)c(C#N)c32)nc2c1CN(C1COC1)C[C@]21CCOC1` [II-13] gave a solubility at 24 h of 52 µg/mL (≈ 75.6 µM).
For `C[C@H](Oc1nc(-c2noc3c2CCC[C@@]32CCCc3sc(N)c(C#N)c32)nc2c1CN(C1COC1)C[C@]21CCOC1)[C@@H]1CCCN1C` [II-12], the solubility at 24 h was over 140 µg/mL.
`C[C@H](Oc1nc(-c2onc3c2CCC[C@@]32CCCc3sc(N)c(C#N)c32)nc2c1CN(C1COC1)C[C@]21CCOC1)[C@@H]1CCCN1C` [I-56] gave a solubility at 24 h of over 147 µg/mL.
With `CO[C@H]1CCN(C)[C@@H]1[C@H](C)Oc1nc(-c2onc3c2CCC[C@@]32CCCc3sc(N)c(C#N)c32)nc2c1n(C)c(=O)n2[C@H]1COC[C@@H](C)C1` [I-51] the solubility at 24 h was under 1 µg/mL.

Biological target: KRAS (G12C)::SOS1 protein-protein interaction (Homo sapiens (Human), UniProt P01116, C118S/C51S/C80L/G12C)
Sequence (P01116 other isoform, or with tags, fused parts or gaps G12C/C51S/C80L/C118S): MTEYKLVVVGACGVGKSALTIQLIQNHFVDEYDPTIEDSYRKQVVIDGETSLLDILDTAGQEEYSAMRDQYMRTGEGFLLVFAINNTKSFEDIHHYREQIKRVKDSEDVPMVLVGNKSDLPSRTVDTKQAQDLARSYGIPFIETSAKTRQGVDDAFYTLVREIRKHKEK
Test: KRAS::SOS1 AlphaScreen binding assay (KRAS G12C)
Conditions: GDP
From the text: as §1, §2, §3
KRAS (G12C) 1-169, N-terminal 6His-tag for purification, cleaved off, C-terminal avi-tag, biotinylated, mutations: C51S, C80L, C118S (in house); final assay concentration 7.5 nM and SOS1 564-1049, N-terminal 229 GST-tag, TEV cleavage site (Viva Biotech Ltd); final assay concentration 5 nM;
as §4, §5, §6, §7, §8, §9, §10, §11
With `CCn1c(=O)n([C@@H]2CCCOC2)c2nc(-c3onc4c3CCC[C@@]43CCCc4sc(N)c(C#N)c43)nc(OCC3(CN4CCCC4)CC3)c21` [I-35] the IC50 was 2 nM.

System: MKN1 cells
Test: MKN1 CTG proliferation assay (120 h) (gastric cancer, wt amplified)
Type: cell-based
Conditions: Homo sapiens, MKN-1
Description: MKN1 cells (JCRB0252) are dispensed into black 384-well plates, flat and clear bottom (Greiner, PNr. 781091) at a density of 200 cells per well in 60 μl RPMI-1640 ATCC-Formulation (Gibco #A10491)+10% FCS (fetal calf serum, HyClone, SH30084.03). Cells are incubated overnight at 37° C. in a humidified tissue culture incubator at 5% CO2. Compounds (10 mM stock in DMSO) are added at logarithmic dose series using the ECHO acoustic liquid handler system (Beckman Coulter), normalizing for added DMSO and including DMSO controls. All compound treatments are performed in technical duplicates. For the TO time point measurement, untreated cells are analyzed at the time of compound addition. Plates are incubated for 120 h, and cell viability is measured using CellTiter-Glo luminescent cell viability reagent (Promega product code G7570). Viability (stated as percent of control) is defined as relative luminescence units RLU of each well divided by the RLU of cells in DMSO controls. IC50 values are determined from viability measurements by non-linear regression using a four-parameter model.
IC50 values of representative compounds according to the invention measured with these assays in the indicated cell lines are presented in Table 46.
`CO[C@H]1CCN(C)[C@@H]1[C@H](C)Oc1nc(-c2noc3c2CCC[C@@]32CCCc3sc(N)c(C#N)c32)nc2c1CN(C1COC1)C[C@]21CCOC1` [II-13] gave an IC50 of 5 nM.
Work on `C[C@H](Oc1nc(-c2noc3c2CCC[C@@]32SCCc3sc(N)c(C#N)c32)nc2c1COC[C@]21CCOC1)[C@@H]1CCCN1C` [II-16] yielded an IC50 of 4 nM.
Compound `C[C@H](Oc1nc(-c2noc3c2CCC[C@@]32CCCc3sc(N)c(C#N)c32)nc2c1CN(C1COC1)C[C@]21CCOC1)[C@@H]1CCCN1C` [II-12] has an IC50 of 10 nM.
Compound `C[C@H](Oc1nc(-c2onc3c2CCC[C@@]32CCCc3sc(N)c(C#N)c32)nc2c1CN(C1COC1)C[C@]21CCOC1)[C@@H]1CCCN1C` [I-56] has an IC50 of 15 nM.
With `CCn1c(=O)n([C@@H]2CCCOC2)c2nc(-c3onc4c3CCC[C@@]43CCCc4sc(N)c(C#N)c43)nc(OCC3(CN4CCCC4)CC3)c21` [I-35] the IC50 was 978 nM.

From US20250019385A1, “SPIROCYCLIC ANNULATED 2-AMINO-3-CYANO THIOPHENES AND DERIVATIVES FOR THE TREATMENT OF CANCER” (Boehringer Ingelheim International GmbH, priority 2023, published 2025)
